PMC9804489, “Phase 1/1b Studies of UCB0599, an Oral Inhibitor of α‐Synuclein Misfolding, Including a Randomized Study in Parkinson's Disease” (Movement Disorders, 2022)
Like-named read-outs stand apart in the source and are kept apart here.

Tests used:
[1] = UP0078 phase 1 food/ITZ study: safety and tolerability in healthy participants
Protocol: UP0078 was a phase 1, open‐label study to evaluate the potential effect of food on the bioavailability of UCB0599 and to test the potential effect of ITZ on the disposition of UCB0599 in HPs. A randomized, two‐way crossover design with a third fixed‐treatment period was used (Fig. S2).
Participants received a single 180 mg dose of UCB0599 on three separate occasions, with a washout period of ≥7 days between doses. The first dose was administered under fasted conditions, the second under fed conditions, and the third under fasted conditions co‐administered with ITZ (200 mg once daily, days 15–22).
The study was conducted at a phase 1 unit in the United Kingdom.
The primary objectives were to assess the potential effect of food intake (standard high‐fat, high‐calorie meal) on single‐dose PK of UCB0599 and to evaluate and compare the single‐dose PK of UCB0599 in the presence or absence of ITZ. The secondary and exploratory objectives were to evaluate the safety and tolerability of UCB0599 under fasted and fed conditions, and with/without concomitant administration of ITZ; to evaluate UCB0599 metabolite plasma PK in the presence or absence of ITZ; and to assess the potential effect of food intake on the single‐dose PK of UCB0599 metabolites.
Primary PK variables were AUC0–t , AUC0–inf, C max, and t max. Primary safety variables were the incidence of TEAEs and serious TEAEs. […]

[2] = UP0030 phase 1 study: plasma pharmacokinetics of UCB0599 and its metabolites; assay type: in vivo, human; conditions: for AUC: read-out: AUC, GeoMean; for Cmax: read-out: C max, GeoMean
Protocol: Statistical evaluations for all three studies were performed using SAS version 9.4 (SAS, Cary, NC, USA), and PK data were analyzed using Phoenix WinNonlin software (Certara, Princeton, NJ, USA). Continuous variables were summarized with number of participants, mean, standard deviation, median, minimum and maximum, and confidence intervals (CI) for the mean. Categorical variables were summarized with frequency counts and percentages.

[3] = UP0030 phase 1 SAD/MAD study: safety and tolerability in healthy participants
Protocol: Part 1 (Fig. S1A) was a randomized, subject‐ and investigator‐blind, placebo‐controlled study in healthy older participants (HOP). Part 2 (Fig. S1B) was an open‐label, two‐way crossover study in HPs.
Part 1 included five cohorts (1, 2, 1b, 2b, and 3) and evaluated SADs (SAD: 90, 180, 360, and 450 mg) and MADs of UCB0599 (MAD: 180 and 360 mg/day). […] The first two doses were administered as a two‐way crossover (under fasting/fed or fed/fasting conditions), and the third dose was administered to both arms under fasted conditions with 200 mg of ITZ (once daily, days −3 to 2) to assess potential drug–drug interactions.
Eligible participants were aged ≥18 years (part 1, 55–75 years for HOP; part 2, <55 years) with a body mass index (BMI) of 18–32 kg/m^2 and a body weight of ≥50 kg. The study was conducted at a phase 1 unit in Germany.
The primary objective was to evaluate the safety and tolerability of UCB0599 after the administration of single and multiple doses in HOP. The secondary objectives are to evaluate the PK of UCB0599 and its desmethyl and N‐oxide metabolites after the administration of single and multiple doses in HOP and to evaluate the PK, safety, and tolerability of UCB0599 in HPs when given a single dose alone, with food or with ITZ.
Safety variables included the incidence of any treatment‐emergent adverse event (TEAE), changes in vital signs, laboratory assessments, 12‐lead electrocardiogram (ECG) and Holter ECG assessment, and the Columbia Suicide Severity Rating Scale (C‐SSRS). PK variables included maximum plasma concentration (C max), time of maximum concentration (t max), AUC (area under the plasma concentration–time curve) from time 0 to last quantifiable concentration (AUC0–t ), AUC from time 0 to infinity (AUC0–inf), apparent total body clearance, apparent volume of distribution, and apparent elimination half‐life (t 1/2).

[4] = human, plasma, oral, UP0030 single dose 90 mg
[5] = human, plasma, oral, UP0030 single dose 450 mg
[6] = UP0030, UCB0599 180 mg/day, n=17
[7] = UP0030 part 2, fasted UCB0599 360 mg, n=3
[8] = UP0030 part 2, fed UCB0599 360 mg, n=3

CCC(C)n1ncn(-c2ccc(N3CCN(c4ccc(OCC5COC(Cn6cncn6)(c6ccc(Cl)cc6Cl)O5)cc4)CC3)cc2)c1=O (stereo not drawn) [ITZ, itraconazole, reference compound]
TEAE considered related to the substance [1]: 9.1%

CCCC[C@H](Cc1c[nH]c2ccccc12)NC(=O)c1cnc(N2CCN(C)CC2)s1 [UCB0599]
Plasma steady‐state concentration achieved, on average ([2]; UP0030, 180 mg/day): ≤ 7 days | Tmax ([2]; human, plasma, oral, UP0030, UCB0599 180 mg/day, read-out: Median t max after multiple doses): 1.5 to 3 h | Tmax ([2]; human, plasma, oral, UP0030 single ascending doses 90–450 mg, read-out: t max range): 1.5 to 2 h | half-life ([2]; human, plasma, oral, UP0030 single ascending doses of UCB0599, across dose groups, read-out: Apparent elimination half‐life, GeoMean range): 10.6 to 13 h | AUC [2, 4]: 3220 ng·h/mL | Cmax [2, 4]: 374 ng/mL | AUC [2, 5]: 17000 ng·h/mL | Cmax [2, 5]: 1810 ng/mL | Hypersensitivity reactions ([3]; UP0030): 2 n | Treatment‐related patterns for vital signs, ECG tracings, or laboratory findings ([3]; UP0030): no discernible UCB0599 treatment‐related patterns | TEAE Diarrhea ([3]; UP0030, UCB0599 90 mg, n=9): 0 n (%) […] | TEAE Drug hypersensitivity ([3]; UP0030, UCB0599 90 mg, n=9): 0 n (%) […] | TEAE Fatigue ([3]; UP0030, UCB0599 90 mg, n=9): 0 n (%) […] | TEAE Nasopharyngitis ([3]; UP0030, UCB0599 90 mg, n=9): 0 n (%) […] | TEAE Diarrhea ([3]; UP0030, UCB0599 180 mg, n=17): 0 n (%) […] | TEAE Drug hypersensitivity ([3]; UP0030, UCB0599 180 mg, n=17): 0 n (%) […] | TEAE Fatigue ([3]; UP0030, UCB0599 180 mg, n=17): 0 n (%) […] | TEAE Headache ([3]; UP0030, UCB0599 180 mg, n=17): 0 n (%) […] | TEAE Myalgia ([3]; UP0030, UCB0599 180 mg, n=17): 0 n (%) […] | TEAE Nasopharyngitis ([3]; UP0030, UCB0599 180 mg, n=17): 0 n (%) […] | TEAE Postlumbar puncture syndrome ([3]; UP0030, UCB0599 180 mg, n=17): 0 n (%) […] | TEAE Diarrhea [3, 6]: 0 n (%) […] | TEAE Fatigue [3, 6]: 0 n (%) […] | TEAE Postlumbar puncture syndrome [3, 6]: 0 n (%) […] | TEAE Presyncope [3, 6]: 0 n (%) […] | TEAE Drug hypersensitivity ([3]; UP0030, UCB0599 360 mg, n=18): 0 n (%) […] | TEAE Myalgia ([3]; UP0030, UCB0599 360 mg, n=18): 0 n (%) […] | TEAE Nasopharyngitis ([3]; UP0030, UCB0599 360 mg, n=18): 0 n (%) […] | TEAE Presyncope ([3]; UP0030, UCB0599 360 mg, n=18): 0 n (%) […] | TEAE Drug hypersensitivity ([3]; UP0030, UCB0599 450 mg, n=9): 0 n (%) […] | TEAE Fatigue ([3]; UP0030, UCB0599 450 mg, n=9): 0 n (%) […] | TEAE Myalgia ([3]; UP0030, UCB0599 450 mg, n=9): 0 n (%) […] | TEAE Presyncope ([3]; UP0030, UCB0599 450 mg, n=9): 0 n (%) […] | TEAE Puncture site pain ([3]; UP0030, UCB0599 450 mg, n=9): 0 n (%) […] | Time to resolution of HSRs ([3]; UP0030, after oral antihistamines): ≤ 3 days | Participants reporting serious TEAEs ([3]; UP0030 part 1): 4.4% | Deaths ([3]; UP0030 part 1, all UCB0599 N=45): 0 n (%) […] | Discontinuations due to drug hypersensitivity ([3]; UP0030 part 1, total UCB0599): 2 participants | Participants reporting TEAEs ([3]; UP0030 part 1, total UCB0599): 66.7% | Participants reporting severe TEAEs ([3]; UP0030 part 1, total UCB0599): 6.7% | Participants who discontinued due to TEAEs ([3]; UP0030 part 1, total UCB0599): 11.1% | Any TEAEs [3, 7]: 0 n (%) […] | Deaths [3, 7]: 0 n (%) […] | Discontinuations due to TEAEs [3, 7]: 0 n (%) […] | Drug‐related TEAEs [3, 7]: 0 n (%) […] | Serious TEAEs [3, 7]: 0 n (%) […] | Severe TEAEs [3, 7]: 0 n (%) […] | Participants reporting TEAEs ([3]; UP0030 part 2, fed UCB0599 360 mg): 33.3% | Deaths [3, 8]: 0 n (%) […] | Discontinuations due to TEAEs [3, 8]: 0 n (%) […] | Drug‐related TEAEs [3, 8]: 0 n (%) […] | Serious TEAEs [3, 8]: 0 n (%) […] | Severe TEAEs [3, 8]: 0 n (%) […]
